Measured values from patent US20100184596A1, “METHOD FOR THE CONTROL OF WEEDS IN TURF” (SYNGENTA CROP PROTECTION, INC., priority 2007, published 2010).

Key:
Type in all cases: in vivo
Clover = assay: Selective post-emergence herbicidal action, field trial Champaign (Table B1.1); details: 22 days after application
Experimental: (§1) The selectivity of the compound of formula I in turf (removal of grassy and broadleaf weeds) has been tested in turfgrass varieties selected from Kentucky bluegrass, tall fescue and perennial ryegrass and in […] selected from clover (an aggressive perennial weed) and dandelion (a weed of perennial horticultural crops and gardens which may also be a problem in some annual crops, particularly where reduced tillage is practiced).
(§2) The trials were conducted in Champaign, Ill., U.S. (Table B1.1) and Hudson, N.Y., U.S. (Table B1.2) under field conditions. Turfgrasses were maintained at approximately a 2.5″ height, like a home lawn. Mixed turf and weed stands were present. The test compounds were applied with a CO2 pressurized backpack sprayer by spraying in the form of an aqueous suspension (prepared from a wettable powder) in a concentration of 210 to 280 g/ha. The plots were then mowed and irrigated as needed. After 22 and 28 days respectively, the test is visually evaluated (100%=total damage to plant; 0%=no damage to plant).

Perennial ryegrass = assay: as above; details: 22 days after application
Experimental: as §1, §2

Tall fescue = assay: as above; details: 22 days after application
Experimental: as §1, §2

[1] = test system: Bermudagrass v. Tifway 419; assay: Phytotoxicity in combination with safeners, post emergence spray (Table B4.3); details: no safener, 100 g ai/ha
Experimental: The phytotoxicity to turfgrass of the compound of formula I in combination with various safeners was tested. The combinations were applied by post emergence spray application. Percentage phytotoxicity assessments were taken at various timepoints. The safeners tested in these trials were cloquintocet-mexyl, cyprosulfamide, a compound of formula 2.3, and isoxadifen-ethyl.

[2] = test system: Perennial ryegrass v. blend of Bright Star, Citation Fore and Quick Trans; assay: Phytotoxicity via granule application, various inert granules (Table B3.4); details: 8 DAT
Experimental: (§3) The phytotoxicity of the compound of formula I to turfgrass species was tested. The compound was applied by distribution of granule formulations of formula I, post emergence, to turfgrass species at two rates. All treatments were watered-in 1 day after application. Percentage phytotoxicity assessments were taken at various timepoints.
In Tables B3.3 and B3.4, the granular formulations tested were made by spraying the compound of formula I onto various inert granules. In each of these trials, the granule formulations were tested at a higher rate than the corresponding spray application

[3] = test system: St. Augustinegrass v. Delmar; assay: Phytotoxicity via granule application (Table B3.1)
Experimental: as §3
(§4) Two granule formulations were made and tested. Granule A is an inert granule formulation, comprising 99.06 wt % DG Lite 150 granules, 0.14 wt % compound of formula I, 0.50 wt % Sunspray 6N, and 0.30 wt % HiSil 233. The compound of formula I was added to the DG Lite granules while blending in a Continental Rollo-mixer.
(§5) Sunspray 6N oil was then sprayed onto the granules, and HiSil added to dry excess liquid and improve granule flowability. The granules were blended in the mixer for 20-30 minutes until homogeneous, and passed through a −12/+60 mesh to remove over and under sized particles.
(§6) Granule B is a fertiliser granule formulation, comprising 54.65 wt % urea, 6.63 wt % triple super phosphate, 4.95 wt % potassion chloride, 9.91 wt % huber clay, 7.22 wt % HiSil 233, 0.16 wt % compound of formula I, […] agnique ME 181, 2.07 wt % stepfac 8180, and 11.98 wt % water. […] The remaining HiSil was added and granules dried at 40-60° C., to remove excess liquid. Finally, the granules were passed through a −12/+60 mesh to remove over and under sized particles.

[4] = test system: Bermudagrass v. Tifway 419; assay: Phytotoxicity via granule application (Table B3.2)
[5] = test system: Bermudagrass v. Tifway 419; assay: Phytotoxicity via granule application (Table B3.2); remark: listed apart in the source
Experimental: as §3, §4, §5, §6

[6] = Granule A (inert), 112 g ai/ha, 7 DAT
[7] = Granule A (inert), 112 g ai/ha, 20 DAT
[8] = Granule A (inert), 280 g ai/ha, 7 DAT
[9] = Granule A (inert), 280 g ai/ha, 11 DAT
[10] = Granule A (inert), 280 g ai/ha, 15 DAT
[11] = Granule B (fertiliser), 112 g ai/ha, 7 DAT
[12] = Granule B (fertiliser), 112 g ai/ha, 11 DAT
[13] = Granule B (fertiliser), 112 g ai/ha, 15 DAT
[14] = Granule B (fertiliser), 280 g ai/ha, 11 DAT

In the case of `COCCOCc1nc(C(F)(F)F)ccc1C(=O)C1=C(O)C2CCC(C2)C1=O` (stereo not drawn) [Formula I, 4-Hydroxy-3-[2-(2-methoxyethoxymethyl)-6-trifluoromethylpyridine-3-carbonyl]-bicyclo[3.2.1]oct-3-en-2-one], the “% damage” value (Clover; 210 g/ha) is reported as 88%, the “% damage” value (Clover; 280 g/ha) is reported as 92% and the “% damage” value (Perennial ryegrass; 210 g/ha) is reported as 0%. The “% damage” value (Perennial ryegrass; 280 g/ha) was 0%, the “% damage” value (Tall fescue; 210 g/ha) was 0% and the “% damage” value (Tall fescue; 280 g/ha) was 0%. The “% phytotoxicity” value ([1]; 7 DAT) was 56.70%, the “% phytotoxicity” value ([1]; 11 DAT) was 38.30% and the “% phytotoxicity” value ([1]; 18 DAT) was 9.30%. For the same molecule, the “% phytotoxicity” value ([2]; Agsorb LUM GA granule, 520 g ai/ha) was 20.0%, the “% phytotoxicity” value ([2]; Agsorb LUM MS granule, 520 g ai/ha) was 5.8% and the “% phytotoxicity” value ([2]; Agsorb RUM GA granule, 520 g ai/ha) was 18.8%. For the same molecule, the “% phytotoxicity” value ([2]; Bio Dac granule, 520 g ai/ha) was 13.3%, the “% phytotoxicity” value ([2]; DG Lite granule, 520 g ai/ha) was 18.8% and the “% phytotoxicity” value ([2]; Eco Gran granule, 520 g ai/ha) was 18.8%. For the same molecule, the “% phytotoxicity” value ([2]; Non dispersing extruded granules, 520 g ai/ha) was 18.8%, the “% phytotoxicity” value ([2]; Oil dry, 520 g ai/ha) was 6.3% and the “% phytotoxicity” value ([2]; Spray, 260 g ai/ha) was 31.3%. The “% phytotoxicity” value [3, 6] was 8.30%, the “% phytotoxicity” value [3, 7] was 0.00% and the “% phytotoxicity” value [3, 8] was 20.00%. For the same molecule, the “% phytotoxicity” value [3, 9] was 5.70%, the “% phytotoxicity” value [3, 10] was 3.30% and the “% phytotoxicity” value [3, 11] was 23.30%. The “% phytotoxicity” value [3, 12] was 10.00%, the “% phytotoxicity” value [3, 13] was 5.00% and the “% phytotoxicity” value [3, 14] was 20.00%. For the same molecule, the “% phytotoxicity” value ([4]; Granule A (inert), 112 g ai/ha, 15 DAT) was 0.00%, the “% phytotoxicity” value [4, 7] was 0.00% and the “% phytotoxicity” value ([4]; Granule A (inert), 112 g ai/ha, 28 DAT) was 0.00%. The “% phytotoxicity” value ([4]; Granule A (inert), 280 g ai/ha, 28 DAT) was 0.00%, the “% phytotoxicity” value [4, 12] was 4.00% and the “% phytotoxicity” value [4, 13] was 0.00%. For the same molecule, the “% phytotoxicity” value ([4]; Granule B (fertiliser), 112 g ai/ha, 20 DAT) was 0.00%, the “% phytotoxicity” value ([4]; Granule B (fertiliser), 112 g ai/ha, 28 DAT) was 0.00% and the “% phytotoxicity” value [4, 14] was 15.00%. The “% phytotoxicity” value ([4]; Granule B (fertiliser), 280 g ai/ha, 15 DAT) was 3.30%, the “% phytotoxicity” value ([4]; Granule B (fertiliser), 280 g ai/ha, 20 DAT) was 1.30% and the “% phytotoxicity” value ([4]; Granule B (fertiliser), 280 g ai/ha, 28 DAT) was 0.00%. For the same molecule, the “% phytotoxicity” value ([4]; Spray, 112 g ai/ha, 7 DAT) was 30.00%, the “% phytotoxicity” value ([4]; Spray, 112 g ai/ha, 11 DAT) was 18.30% and the “% phytotoxicity” value ([4]; Spray, 112 g ai/ha, 15 DAT) was 10.00%. The “% phytotoxicity” value ([4]; Spray, 112 g ai/ha, 20 DAT) was 3.00%, the “% phytotoxicity” value ([4]; Spray, 112 g ai/ha, 28 DAT) was 0.00% and the “% phytotoxicity” value ([4]; Spray, 280 g ai/ha, 7 DAT) was 66.70%. For the same molecule, the “% phytotoxicity” value ([4]; Spray, 280 g ai/ha, 11 DAT) was 25.00%, the “% phytotoxicity” value ([4]; Spray, 280 g ai/ha, 15 DAT) was 10.00% and the “% phytotoxicity” value ([4]; Spray, 280 g ai/ha, 20 DAT) was 6.00%. For the same molecule, the “% phytotoxicity” value ([4]; Spray, 280 g ai/ha, 28 DAT) was 0.00%, the “% phytotoxicity” value [5, 6] was 6.00% and the “% phytotoxicity” value ([5]; Granule A (inert), 112 g ai/ha, 11 DAT) was 0.00%. The “% phytotoxicity” value [5, 8] was 23.30%, the “% phytotoxicity” value [5, 9] was 8.30% and the “% phytotoxicity” value [5, 10] was 2.30%. The “% phytotoxicity” value ([5]; Granule A (inert), 280 g ai/ha, 20 DAT) was 0.00%, the “% phytotoxicity” value [5, 11] was 16.70% and the “% phytotoxicity” value ([5]; Granule B (fertiliser), 280 g ai/ha, 7 DAT) was 33.30%.
